Test results reported in patent US20050154033A1, “Methods of using zonisamide as an adjunctive therapy for partial seizures” (Eisai Co., Ltd, priority 2004, published 2005).

Legend:
[1] = tested on: cultured mouse spinal cord neurons; conditions: 10-30 μg/mL, cited from earlier work
[2] = upon reaching a stable dose or following dosage adjustment; cited from earlier work
carbonic anhydrase = conditions: relative to acetazolamide; cited from earlier work
[3] = tested on: dopaminergic and serotonergic neurotransmission; conditions: in vivo microdialysis; cited from earlier work
[4] = parameters: species or system patients (human); conditions: human, in vivo
Description: The pharmacovigilance data that were collected, reviewed and analyzed provided the following information in respect of the incidence of NMS. To date, a total of 3 cases (two adult and one pediatric) fulfill the criteria of potential neuroleptic malignant syndrome. These cases were reviewed in detail for evaluation of possible safety signals. They were all deemed serious, and in all cases, the patients recovered with appropriate treatment.
Cases ZONI000813 and ZONI000929 are adult cases from Japan. In both cases the patients carried a diagnosis of Parkinson's disease (PD) and were enrolled in a double blind, placebo controlled […] study of zonisamide as a potential treatment for PD (Protocol AD810N-202-1). […]
Estimates of exposure, based upon retail and mail order prescriptions, indicate that the number of unique patients taking zonisamide capsules in the U.S. is about 37,276 (total prescriptions per year/average number of prescriptions per patient per year less a calculated percentage decrease based on estimated annual dropouts) in the time between approval in 2000 and December 2002 . […] Similarly, the incidences of NMS estimated herein are unlikely to be higher than calculated. Based on the exposure data and number of NMS cases, the incidence of NMS in the U.S. and Japan is calculated to be about 1:37,276 unique patients and 1:592,588 unique patients, respectively.

sodium channels = conditions: in vitro; cited from earlier work
T-type Ca^2+ currents = conditions: in vitro; cited from earlier work
rat hippocampal slices = conditions: 10-30 μg/mL; cited from earlier work
[5] = tested on: GABA/benzodiazepine receptor ionophore complex; conditions: in vitro; does not produce changes in chloride flux; cited from earlier work

## NS(=O)(=O)Cc1noc2ccccc12 [zonisamide, 1,2-benzisoxazole-3-methanesulfonamide]
[1]; cultured mouse spinal cord neurons
  postsynaptic GABA or glutamate responses: without affecting
[1]
  synaptically-driven electrical activity: suppresses synaptically-driven electrical activity
[2]
  time required to achieve steady-state levels: up to two weeks
Carbonic anhydrase
  carbonic anhydrase inhibition compared to acetazolamide: 1/50
[3]
  effect on neurotransmission: facilitates both dopaminergic and serotonergic neurotransmission
[4]
  cases fulfilling the criteria of potential neuroleptic malignant syndrome: 3 cases
  incidence of NMS: about 1:37,276 unique patients
Sodium channels
  effect on sodium channels: blocks sodium channels
T-type Ca^2+ currents
  effect on T-type Ca2+ currents: reduces voltage-dependent, transient inward currents
Rat hippocampal slices
  neuronal or glial uptake of [3H]-GABA: without affecting
[5]
  binding to GABA/benzodiazepine receptor ionophore complex: binds to the GABA/benzodiazepine receptor ionophore complex in an allosteric fashion
